This is an account of results in patent publication US7781479B2, “Heteroaryl derivatives” (Dainippon Sumitomo Pharma Co., Ltd., priority 2005, dated 2010).

By Emax is commonly meant the maximal effect, on the per cent scale that the assay sets.

Assay [1] deals with T1, human PPARγ ligand binding domain fused to GAL4 DNA binding domain (Homo sapiens, UniProt P37231).
T1 construct: human PPARγ (including amino acids residue 204-505); expressed in transfected cells; host or cells: COS-1 cells
T1 sequence (P37231 204-505): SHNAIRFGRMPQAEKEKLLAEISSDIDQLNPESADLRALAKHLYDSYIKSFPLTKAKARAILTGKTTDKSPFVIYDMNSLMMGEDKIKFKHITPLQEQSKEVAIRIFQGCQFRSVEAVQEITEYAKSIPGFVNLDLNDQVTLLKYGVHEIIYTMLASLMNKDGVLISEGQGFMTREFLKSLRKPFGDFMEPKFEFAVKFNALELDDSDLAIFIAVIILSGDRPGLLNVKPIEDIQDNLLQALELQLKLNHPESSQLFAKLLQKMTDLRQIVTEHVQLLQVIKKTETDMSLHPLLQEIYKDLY
In words: GAL4-PPARγ luciferase reporter assay in COS-1 cells. Type of assay: cell-based. To be noted: for Emax: maximum PPARγ-agonistic activity per the maximum PPARγ-agonistic activity (100%) of pioglitazone. From the text:
(§1) Evaluation of PPAR α or γ Agonistic Activity
(§2) Construction of Reporter Plasmid
(§3) By inserting a gene fragment encoding the ligand binding domain of human PPARα (including amino acid residues 167-468) or a gene fragment encoding the ligand binding domain of human PPARγ (including amino acids residue 204-505) into a multicloning site of expressing vector pM containing DNA binding domain of yeast GAL4 protein (Clonetech), a vector plasmid for expressing a fused protein of GAL4 protein DNA binding domain and human PPARα or γ ligand binding domain was obtained.
(§4) As a reporter plasmid, pGL3-Basic Vector containing firefly luciferase gene (Promega Corporation) was used wherein Gal 4-responsive sequence UAS and rabbit β-globin promoter were inserted.
(§5) For the correction of transformation efficiency, a plasmid pβgal control (Clonetech) containing lacZ gene, was used.
COS-1 cells were cultured in the phenol red free Dulbecco's Modified Eagles Medium (DMEM) (Gibco) supplemented with 5% activated charcoal/dextran stripped fetal bovine serum at 37° C. with 5% carbon dioxide. The COS-1 cells were plated at a concentration of 5×10^4 cells/well into a 24-well plate, and were incubated overnight. The medium was replaced with a fresh medium supplemented […] 5% activated charcoal/dextran treated fetal bovine serum. Further, the cells were transfected using Lipofectamine plus reagent (Gibco) with plasmids GAL4-PPARα- or γ-expressing plasmid (5 ng), the reporter plasmid (50 ng), and pβgal control (350 ng) per well. After incubation for 4 hours, the medium was changed with a fresh medium supplemented with 5% activated charcoal/dextran treated fetal bovine serum. Then, the compound of the present invention was added thereto in such an amount that the final concentration thereof is 0.1 μM, 0.3 μM, 1 μM, 3 μM or 10 μM. After the cultivation for 24 hours, the cells were lysed with a solution for cell lysis accompanied to the Luciferase Assay System (Promega Corporation). The luciferase activity therein was measured by a luminometer using the reagent for measuring luciferase which was also accompanied to said System.
The PPARα- or γ-agonistic activity was expressed as a relative activity where the luciferase activity in the well to which the vehicle (DMSO) was added as control was regarded as 1. The PPARα-agonistic activity and the PPARγ-agonistic activity at each 10 μM, and the maximum PPARγ-agonistic activity (%) of the compound of the present invention per the maximum PPARγ-agonistic activity (100%) of pioglitazone are shown in the following Table 1.

The subject of assay [2] is male db/db mice. In words: Hypoglycemic activity in db/db mice (blood glucose level). As to conditions: 30 mg/kg orally once a day for 2 weeks, blood glucose level on the last day. Type of assay: in vivo. How it is done: The test compounds as disclosed in Examples were dissolved or suspended in a 0.5% carbomethyl cellulose solution, and orally administered to male db/db mice (7 to 8 weeks old) at a final dose of 30 mg/kg once a day for 2 weeks. On the last day, the blood was taken at the tail vein, and immediately thereafter, perchloric acid was added for removing proteins, and the blood glucose level was measured by Glucolse CII Test Wako (Wako Pure Industries, Ltd.).
The hypoglycemic activity was calculated by the following equation.

The target of assay [3] is T2, human PPARα ligand binding domain fused to GAL4 DNA binding domain (Homo sapiens, UniProt Q07869).
T2 construct: human PPARα (including amino acid residues 167-468); expressed in transfected cells; host or cells: COS-1 cells
T2 sequence (Q07869 167-468): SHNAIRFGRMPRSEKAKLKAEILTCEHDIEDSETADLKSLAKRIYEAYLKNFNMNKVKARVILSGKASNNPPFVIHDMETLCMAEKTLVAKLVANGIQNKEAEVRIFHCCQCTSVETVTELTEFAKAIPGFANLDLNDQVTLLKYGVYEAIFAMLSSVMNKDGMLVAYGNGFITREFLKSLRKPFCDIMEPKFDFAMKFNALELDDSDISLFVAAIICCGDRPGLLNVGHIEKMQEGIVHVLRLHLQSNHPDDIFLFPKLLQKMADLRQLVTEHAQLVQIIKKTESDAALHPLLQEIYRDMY
In words: GAL4-PPARα luciferase reporter assay in COS-1 cells. Type of assay: cell-based. As to conditions: relative luciferase activity, vehicle (DMSO) control regarded as 1, 24 hours.
From the text: as §1, §2, §3, §4, §5
COS-1 cells were cultured in the phenol red free Dulbecco's Modified Eagles Medium (DMEM) (Gibco) supplemented with 5% activated charcoal/dextran stripped fetal bovine serum at 37° C. with 5% carbon dioxide. […] The luciferase activity therein was measured by a luminometer using the reagent for measuring luciferase which was also accompanied to said System.
The PPARα- or γ-agonistic activity was expressed as a relative activity where the luciferase activity in the well to which the vehicle (DMSO) was added as control was regarded as 1. […]

In assay [1], `Cc1ccc(C(=O)c2cccn2C/C=C\c2ccc(COC(C)(C)C(=O)O)cc2)cc1` [Compound 1] showed an Emax of 51%.
Still for that read-out and setting: the figure for `Cc1ccc(C(=O)c2c(C)n(C/C=C/c3ccc(COC(C)(C)C(=O)O)cc3)c3ncccc23)cc1` [Compound 20] is 68%.
For the compound `Cc1ccc(C(=O)c2ccn(C/C=C/c3ccc(CO[C@H](C)C(=O)O)cc3)n2)cc1` [Compound 21], the Emax in assay [1] amounted to 71%.
Take `Cc1ccc(C(=O)c2nn(C/C=C/c3ccc(COC(C)(C)C(=O)O)cc3)c3ccccc23)cc1` [Compound 35]: the Emax in assay [1] was 57%.
As for `COc1ccc2c(C(=O)c3ccc(C)cc3)c(C)n(Cc3ccc(CO[C@H](C)C(=O)O)cc3)c2c1` [Compound 46], the Emax in assay [1] turned out to be 26%.
Still for that read-out and setting: to `COc1ccc2c(C(=O)c3ccc(C)cc3)c(C)n(Cc3cccc(CO[C@H](C)C(=O)O)c3)c2c1` [Compound 54] belongs 39%.
Take `Cc1ccc(C(=O)c2c(C)n(Cc3cccc(CO[C@H](C)C(=O)O)c3)c3ncccc23)cc1` [Compound 59]: in assay [1], the Emax was found to be 41%.
On the same count and under the same terms, to `Cc1ccc(C(=O)c2cccn2Cc2ccc(/C=C/CO[C@H](C)C(=O)O)cc2)cc1` [Compound 68] belongs 71%; to `Cc1ccc(C(=O)c2c(C)n(Cc3ccc(/C=C/COC(C)(C)C(=O)O)cc3)c3ccccc23)cc1` [Compound 79], 35%.
Still for that read-out and setting: the figure for `COc1ccc2c(C(=O)c3ccc(C)cc3)c(C)n(Cc3ccc(/C=C/COC(C)(C)C(=O)O)cc3)c2c1` [Compound 81] is 42%.
Still for that read-out and setting: to `Cc1ccc(C(=O)c2c(C)c3ccc(C(F)(F)F)cc3n2Cc2ccc(/C=C/COC(C)(C)C(=O)O)cc2)cc1` [Compound 83] belongs 13%.
On to `Cc1ccc(C(=O)c2c(C)n(C/C=C/c3ccc(COC(C)(C)C(=O)O)cc3)c3ncccc23)cc1` [Example 20, 2-Methyl-2-[(4-{(1E)-3-[2-Methyl-3-(4-methylbenzoyl)-1H-pyrrolo[2,3-b]pyridin-1-yl]prop-1-en-1-yl}benzyl)oxy]propionic acid], for which, in assay [2], the “Hypoglycemic Activity (%)” value was 50.4%.
Still for that read-out and setting: the figure for `Cc1ccc(C(=O)c2nn(/C=C/c3ccc(CO[C@H](C)C(=O)O)cc3)c3ccccc23)cc1` [Example 34, (2R)-2-[(4-{(E)-2-[3-(4-Methylbenzoyl)-1H-indazol-1-yl]vinyl}benzyl)oxy]propanoic acid] is 47.4%; for `Cc1ccc(C(=O)c2nn(C/C=C/c3ccc(COC(C)(C)C(=O)O)cc3)c3ccccc23)cc1` [Example 35, 2-Methyl-2-[(4-{(1E)-3-[3-(4-methylbenzoyl)-1H-indazol-1-yl]prop-1-en-1-yl}benzyl)oxy]propanoic acid] it is 27.3%.
The same measure, in the same setting: the figure for `COc1ccc2c(C(=O)c3ccc(C)cc3)c(C)n(Cc3cccc(CO[C@H](C)C(=O)O)c3)c2c1` [Example 54, (2R)-2-[(3-{[6-Methoxy-2-methyl-3-(4-methylbenzoyl)-1H-indol-1-yl]methyl-}benzyl)oxy]propionic acid] is 47.7%.
Consider `Cc1ccc(C(=O)c2c(C)n(-c3ccc(COC4(C(=O)O)CCC4)cc3)c3ccccc23)cc1` [Example 86, 1-({4-[2-Methyl-3-(4-methylbenzoyl)-1H-indol-1-yl]benzyl}oxy)cyclobutane carboxylic acid], for which, in assay [3], the “PPARα-agonistic activity (10 μM)” value was determined as 1.3. The “PPARγ-agonistic activity (10 μM)” value in assay [1] (10 μM, relative luciferase activity, vehicle (DMSO) control regarded as 1, 24 hours) was 2.8. In addition, in assay [1], the Emax came to 20%.
